{"source": "patent US12286618B2", "about": "“Lactic acid bacteria” (priority 2018, dated 2025)", "molecular_target": "Streptococcus thermophilus glucokinase (GlcK) DGCC7710 variant E275K, strain DSM32587 (DGCC12534), SEQ ID NO: 22 (Streptococcus thermophilus, UniProt Q5M4Y5, E275K)", "sequence (Q5M4Y5 entry or part of it E275K)": "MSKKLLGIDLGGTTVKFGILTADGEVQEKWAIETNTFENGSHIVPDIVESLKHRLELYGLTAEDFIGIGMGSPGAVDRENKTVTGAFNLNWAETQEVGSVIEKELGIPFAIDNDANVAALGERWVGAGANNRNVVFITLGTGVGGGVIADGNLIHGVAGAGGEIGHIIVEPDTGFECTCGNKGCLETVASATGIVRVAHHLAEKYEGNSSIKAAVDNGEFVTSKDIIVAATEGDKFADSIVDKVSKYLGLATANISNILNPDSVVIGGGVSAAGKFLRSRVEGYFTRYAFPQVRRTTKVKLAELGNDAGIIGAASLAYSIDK", "conditions": "substrate glucose (0, 5, 10, 15, 20 mM); 1 mM ATP; pH 7.2; 30° C.; crude extract; mean of three independent experiments", "experimental": "A fresh overnight culture of the Streptococcus thermophilus strain to be assayed in M17 containing 30 g/L lactose is obtained and used to inoculate at 1% (vol/vol) 10 ml of fresh M17 30 g/L lactose. Cells are harvested by centrifugation (6000 g, 10 min, 4° C.) at a 600 nm optical density (OD600) of 0.8+/−0.2, washed in 5 ml cold GLCK buffer (5 mM MgCl2, 10 mM K2HPO4/KH2PO4 [pH 7.2]), and resuspended in 500 μl cold GLCK buffer. EDTA-free protease inhibitors “cOmplete™” (Roche, supplier reference 04693132001) is added in GLCK buffer as described by the provider. […] Total protein content is determined by using the FLUKA Protein Quantification Kit-Rapid (ref 51254). The glucokinase activity in the cell extracts is determined spectrophotometrically by a glucose-6-phosphate dehydrogenase (G-6PDH, EC1.1.1.49): NADPH-coupled assay (Porter et al., 1982), essentially as described by Pool et al. (2006). […] The optical density at 340 nm is measured for 5 minutes by using a Synergy HT multi-detection microplate reader (BIO-TEK). […]\nA fresh overnight culture of a Streptococcus thermophilus strain in M17 containing 30 g/L lactose was obtained and used to inoculate at 1% (vol/vol) 10 ml of fresh M17 30 g/L lactose. […] Total protein content was determined by using the FLUKA Protein Quantification Kit-Rapid (ref 51254). […]"}
{"smiles": "OC[C@H]1OC(O)[C@H](O)[C@@H](O)[C@@H]1O", "note": "(stereo partly shown) [glucose]", "values": [{"measurement": "Vmax Glucokinase", "result": 914, "unit": "U/g total protein extract"}]}
